Source: US9505772B2, “Aromatic ring compound” (TAKEDA PHARMACEUTICAL COMPANY LIMITED, priority 2012, dated 2016)
One block for each compound: values may come before it.

Columns and labels:
[1] = target: T1, human MCHR1 (Homo sapiens, UniProt Q99705); assay: Human MCH receptor 1 (MCHR1) binding inhibitory activity, binding assay with [125I]-MCH(4-19); settings: test compound 0.1 μM, human MCHR1-expressing CHO cell membrane fraction, read-out: Binding inhibition rate % (0.1 μM)
T1 construct: expressed in transfected cells; host or cells: CHO cell clone 57 (described in WO01/82925); membrane fraction
Procedure: Determination of Human MCH Receptor 1 (MCHR1) Binding Inhibitory Activity of Test Compound Using Binding Assay
1. Preparation of Membrane Fraction
Using human MCHR1(=SLC-1 receptor)-expressing CHO cell clone 57 described in WO01/82925, MCHR1-expressing CHO cellular membrane fractions were prepared by the following method.
In phosphate buffered saline (pH 7.4) supplemented with 5 mM EDTA (ethylenediaminetetraacetic acid) were respectively suspended human MCHR1-expressing CHO cells (1×10^8 cells) and centrifuged. Homogenate buffer (10 mL, 10 mM NaHCO3, 5 mM EDTA, pH 7.5, 0.5 mM PMSF (phenylmethylsulfonyl fluoride), 20 mg/L leupeptin, 4 mg/L E-64, 1 mg/L pepstatin A) was added to the pellets of the cells and, using Polytron Homogenizer, the mixture was homogenated. The supernatant obtained after centrifugation at 400×g for 10 min was further centrifuged at 100,000×g for 1 hr to give precipitate of the membrane fraction. The precipitate were suspended in 2 mL of assay buffer [20 mM Tris-HCl (pH 7.5), 5 mM EDTA, 0.5 mM PMSF, 20 mg/L leupeptin, 4 mg/L E-64, 1 mg/L pepstatin A]. The membrane fractions were suspended in assay buffer to a protein concentration of 2 mg/mL, and after dispensing, preserved at −80° C. and used upon thawing each time when in use.
The MCHR1 ligand binding inhibitory activity of the test compound was determined as follows.
An MCHR1-expressing CHO cellular membrane fraction (173 μL) diluted with an assay buffer was dispensed to a 96 well polypropylene plate (3363, Corning). DMSO solution (2 μL), 33 μM cold MCH(1-19) diluted with DMSO solution (2 μL), or a test compound solution diluted with DMSO solution to various concentrations (2 μL) was added, and lastly, [^125I]-MCH(4-19) diluted with assay buffer (hereinafter, sometimes to be referred to as “hot MCH”, 25 μL) was added to each well. The mixture was reacted with stirring at room temperature for 1 hr, and the plate was set on FilterMate Harvester (PerkinElmer). Using a treating glass filter plate (GF/C, PerkinElmer) with polyethyleneimine, which had been previously set, the plate was suction-filtered and washed three times with washing buffer (50 mM Tris-HCl buffer pH 7.5). The glass filter plate was dried, MicroScinti0 (PerkinElmer) was added at 25 μL/well, and the resulting radioactivity was measured by TopCount liquid scintillation counter (PerkinElmer). The binding inhibition rate of the test compound was calculated by the following formula. Binding inhibition (%)=100−(radioactivity upon addition of test compound and hot MCH−radioactivity upon addition of cold MCH and hot MCH solution)/(radioactivity upon addition of DMSO solution and hot MCH−radioactivity upon addition of cold MCH and hot MCH solution)×100
The binding inhibition rates (%) of test compounds (0.1 μM) as measured using human MCHR1-expressing CHO cell are shown in Table 2.

[2] = target: T1, human MCHR1; assay: MCH receptor 1 antagonistic activity, Ca2+ mobilization assay; assay type: cell-based; settings: test compound 0.1 μM; human MCHR1-expressing CHO cells (clone #4); MCH(4-19) 2 nM; read-out: Inhibition rate % (0.1 μM)
Procedure: Measurement of MCH Receptor 1 Antagonistic Activity of Test Compound Using Ca^2+ Mobilization Assay
Using an expression vector plasmid introduced with human MCHR1 gene for expression in animal cells, human MCHR1 gene was introduced into CHO cells (CHO dhfr^−) by Lipofectamine LTX (Invitrogen). The cells were cultured in selection MEMα medium [445 mL of MEMα medium without nucleic acid and added with 5 mL of Penicillin-Streptomycin (Invitrogen) and 50 mL of dialyzed fetal bovine serum]. Colony 24 clones grown in the selection medium, which were human MCHR1 gene-expressing CHO cell candidates, were selected. […] In the following test, this human MCHR1-expressing CHO cell (clone #4) was used. An integrated dispensing function fluorometer (CellLux, PerkinElmer) was used for Ca^2+ mobilization assay. The CHO cells were sown in a 96 well plate (type 3904, Corning) with a black wall and clear well bottom at a density of 20000 cells/well, and cultured in an incubator for about 24 hr at 5% CO2, 37° C. The medium was removed, and the cells were washed with phosphate buffered saline (PBS). A Ca^2+ indicator dye reagent (DOJINDO LABORATORIES, Ca screening no-wash kit Fluo4) was added at 100 μL/well, and the dye was allowed to penetrate into the cell for 30 min in an incubator at 5% CO2, 37° C. The plate was set on a plate reader. First, a test compound solution diluted with an assay buffer [10 mM HEPES (pH 7.4), 1× assay buffer containing 0.1% BSA (DOJINDO LABORATORIES, attached to Ca screening no-wash kit Fluo4)] or DMSO solution was added at 50 μL/well, and then ligand MCH (4-19) peptide (final concentration 2 nM) diluted with assay buffer or DMSO was added at 50 μL/well, during which changes in intracellular fluorescence were measured at 2 second intervals. The antagonistic activity of the test compound was calculated by the following formula and shown as an inhibition rate (%) wherein the intracellular fluorescence activity resulting from the stimulation by the addition of ligand MCH (4-19) peptide was 100% and that of the well added with DMSO solution alone was 0%. inhibitory rate (%)=100−[fluorescence activity upon addition of test compound and MCH(4-19) peptide solution−fluorescence activity upon addition of DMSO solution only]/[fluorescence activity upon addition of DMSO solution and MCH(4-19) peptide solution−fluorescence activity upon addition of DMSO solution only]×100
The inhibition rates (%) of test compounds (0.1 μM) as antagonist activity measured using human MCHR1-expressing CHO cells (clone #4) are shown in the following Table 3.

T1 sequence (Q99705 whole entry): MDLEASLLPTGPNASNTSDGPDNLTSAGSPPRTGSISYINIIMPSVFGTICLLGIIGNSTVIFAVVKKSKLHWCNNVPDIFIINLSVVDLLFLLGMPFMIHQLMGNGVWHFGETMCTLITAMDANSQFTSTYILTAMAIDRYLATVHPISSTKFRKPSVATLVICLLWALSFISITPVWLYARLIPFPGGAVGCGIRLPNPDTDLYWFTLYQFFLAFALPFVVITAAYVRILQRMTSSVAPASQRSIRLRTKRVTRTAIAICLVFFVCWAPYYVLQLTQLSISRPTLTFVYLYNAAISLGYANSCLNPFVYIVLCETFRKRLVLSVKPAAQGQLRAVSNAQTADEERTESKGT

SMILES: COc1cc(-n2ccc3oc(-c4ccc(OC(F)(F)F)cc4)cc3c2=O)ccc1OCC1(C#N)CC1 [Example 28, 1-((2-Methoxy-4-(4-oxo-2-(4-(trifluoromethoxy)phenyl)furo[3,2-c]pyridin-5(4H)-yl)phenoxy)methyl)cyclopropanecarbonitrile]
- inhibition at 0.1 µM [1]: 63%
- inhibition at 0.1 µM [2]: 24%

SMILES: Cc1cc(-n2ccc3oc(-c4ccc(Cl)cc4)cc3c2=O)ccc1OCC1(C#N)CC1 [Example 33, 1-((4-(2-(4-Chlorophenyl)-4-oxofuro[3,2-c]pyridin-5(4H)-yl)-2-methylphenoxy)methyl)cyclopropanecarbonitrile]
- inhibition at 0.1 µM [1]: 84%
- inhibition at 0.1 µM [2]: 34%

SMILES: COc1cc(-n2ccc3oc(-c4ccc(Cl)cc4)cc3c2=O)ccc1OCC1CCCO1 (stereo not shown) [Example 36, 2-(4-Chlorophenyl)-5-(3-methoxy-4-(tetrahydrofuran-2-ylmethoxy)phenyl)furo[3,2-c]pyridin-4(5H)-one]
- inhibition at 0.1 µM [1]: 95%
- inhibition at 0.1 µM [2]: 78%

SMILES: COc1cc(-n2ccc3oc(-c4ccc(Cl)cc4)cc3c2=O)ccc1OCC1(C)COC1 [Example 41, 2-(4-Chlorophenyl)-5-(3-methoxy-4-((3-methyloxetan-3-yl)methoxy)phenyl)furo[3,2-c]pyridin-4(5H)-one]
- inhibition at 0.1 µM [1]: 97%
- inhibition at 0.1 µM [2]: 92%

The remaining lines, values ahead:

- inhibition at 0.1 µM [1]: 96%
- inhibition at 0.1 µM [2]: 84%
SMILES: COc1cc(-n2ccc3oc(-c4ccc(Cl)cc4)cc3c2=O)ccc1OCC1CCOC1 (stereo not shown) [Example 39, 2-(4-Chlorophenyl)-5-(3-methoxy-4-(tetrahydrofuran-3-ylmethoxy)phenyl)furo[3,2-c]pyridin-4(5H)-one]

- inhibition at 0.1 µM [1]: 91%
- inhibition at 0.1 µM [2]: 95%
SMILES: COc1cc(-n2ccc3oc(-c4ccc(Cl)cc4)cc3c2=O)ccc1OCC1COC1 [Example 40, 2-(4-Chlorophenyl)-5-(3-methoxy-4-(oxetan-3-ylmethoxy)phenyl)furo[3,2-c]pyridin-4(5H)-one]

- inhibition at 0.1 µM [1]: 92%
- inhibition at 0.1 µM [2]: 99%
SMILES: COc1cc(-n2ccc3oc(-c4ccc(Cl)cc4)cc3c2=O)ccc1OCC1CCO1 (stereo not shown) [Example 43, 2-(4-Chlorophenyl)-5-(3-methoxy-4-(oxetan-2-ylmethoxy)phenyl)furo[3,2-c]pyridin-4(5H)-one]

- inhibition at 0.1 µM [1]: 85%
- inhibition at 0.1 µM [2]: 45%
SMILES: COc1cc(-n2ccc3oc(-c4ccc(Cl)cc4)cc3c2=O)ccc1OCC1CC1(F)F (stereo not shown) [Example 44, 2-(4-Chlorophenyl)-5-(4-((2,2-difluorocyclopropyl)methoxy)-3-methoxyphenyl)furo[3,2-c]pyridin-4(5H)-one]
